From paper PMC6160999, “Pharmacokinetics, Tissue Distribution and Excretion of a Novel Diuretic (PU-48) in Rats” (Pharmaceutics, 2018)
“And” between values parts separate entries of the source, which are not always exact repeats. Equal entries are not always repeated.

Tests used:
[1] = Urine and feces excretion after single oral PU-48 SNEDDS; format: in vivo; settings: rat, oral PU-48 SNEDDS 12 mg/kg
Method: Internal standard (IS, 25 μL) was added to 50 μL plasma, urine, or bile sample in a clean tube, placed into a water bath at 37 °C, and dried under a gentle stream of nitrogen gas, followed by the addition of 0.5 mL of ethyl acetate for liquid-liquid extraction. The mixture was shaken by a vortex mixer for 3 min, and then centrifuged at 8000 rpm (4200× g) for 10 min at 4 °C. After centrifugation, the upper organic phase was transferred into a clean centrifuge tube and then dried it again. The combined upper organic phases were evaporated to dryness at 37 °C under a gentle stream of nitrogen gas. The residue was reconstituted with 50 μL acetonitrile and then centrifuged at 13,000 rpm (12,000× g) for 10 min at 4 °C, the upper liquid was transferred into sample vials. Finally, 5 μL aliquots were injected into the LC–MS/MS system to analyze. Each tissue samples were homogenized in normal saline (0.9% NaCl, 1:3, w/v), and then centrifuged at 10,000× g for 10 min to get the supernatant. Other steps were the same as plasma sample preparation.
Feces samples were homogenized in 0.9% NaCl solution (1 g/10 mL), vortexed for 1 min and then centrifuged at 1200× g for 15 min to gather the supernatant. A volume of 25 μL of IS was added to 500 μL mixture in a clean tube, placed into a water bath at 37 °C and dried under a gentle stream of nitrogen gas, followed by the addition of 2 mL of ethyl acetate for twice liquid-liquid extraction (total 4 mL). The residue was reconstituted with 50 μL mobile phase and then 5 μL aliquots were injected into the HPLC system to analyze.
Six male rats were given single orally administration of PU-48 (12 mg/kg, 1.2 mg/mL in the SNEDDS formulation) and housed in separate stainless-steel metabolism cages. Both feces and urine samples were collected at 0–1, 1–2, 2–4, 4–6, 6–8, 8–12, 12–24, 24–48, 48–72 and 72–96 h. In a separate study, bile samples were collected 0–1, 1–2, 2–4, 4–6, 6–8, 8–12, 12–24, 24–48, 48–72 and 72–96 h after oral administration of PU-48 (12 mg/kg, 1.2 mg/mL in the SNEDDS formulation) to six bile duct-cannulated rats.

[2] = system: IMCD urea transporter UT-As; parameters: method as in PMID 25298345, PMID 12133842, PMID 12965892, PMID 23597791, PMID 24210002; settings: rodents, compared to the other thienoquinolin lead compounds; cited from earlier work

SMILES: COC(=O)c1sc2nc3ccc(OC)cc3cc2c1N [PU-48, Methyl 3-amino-6-methoxythieno [2,3-b] quinoline-2-carboxylate]
- Accumulative Excretion Amount, urine ([1]; 0–1 h): 61.2 ± 13.4 ng
- Accumulative Excretion Percentage, urine ([1]; 0–1 h): 0.0022 ± 0.0005%
- Excretion Amount, urine ([1]; 0–1 h): 61.2 ± 13.4 ng
- PU-48 Concentration in urine ([1]; 0–1 h): 627.9 ± 94.1 ng/mL
- Accumulative Excretion Amount, feces ([1]; 0–6 h): 0.1 µg
- Accumulative Excretion Percentage, feces ([1]; 0–6 h): 0.0022%
- Excretion Amount, feces ([1]; 0–6 h): 0.1 µg
- PU-48 Concentration in feces ([1]; 0–6 h): 0.1 µg/mL
- Accumulative Excretion Amount, urine ([1]; 1–2 h): 131.8 ± 37.9 ng
- Accumulative Excretion Percentage, urine ([1]; 1–2 h): 0.0047 ± 0.0015%
- Excretion Amount, urine ([1]; 1–2 h): 80.8 ± 41.0 ng
- PU-48 Concentration in urine ([1]; 1–2 h): 376.3 ± 184.2 ng/mL
- Accumulative Excretion Amount, urine ([1]; 2–4 h): 203.6 ± 48.4 ng
- Accumulative Excretion Percentage, urine ([1]; 2–4 h): 0.0073 ± 0.0018%
- Excretion Amount, urine ([1]; 2–4 h): 107.7 ± 30.0 ng
- PU-48 Concentration in urine ([1]; 2–4 h): 97.3 ± 20.1 ng/mL
- Accumulative Excretion Amount, urine ([1]; 4–6 h): 345.3 ± 107.2 ng
- Accumulative Excretion Percentage, urine ([1]; 4–6 h): 0.0123 ± 0.0038%
- Excretion Amount, urine ([1]; 4–6 h): 141.7 ± 78.0 ng
- PU-48 Concentration in urine ([1]; 4–6 h): 156.3 ± 65.6 ng/mL
- Accumulative Excretion Amount, feces ([1]; 6–8 h): 0.4 µg
- Accumulative Excretion Percentage, feces ([1]; 6–8 h): 0.0128%
- Excretion Amount, feces ([1]; 6–8 h): 0.4 µg
- PU-48 Concentration in feces ([1]; 6–8 h): 0.4 µg/mL
- Accumulative Excretion Amount, urine ([1]; 6–12 h): 496.4 ± 129.9 ng
- Accumulative Excretion Percentage, urine ([1]; 6–12 h): 0.0178 ± 0.0048%
- Excretion Amount, urine ([1]; 6–12 h): 151.1 ± 94.8 ng
- PU-48 Concentration in urine ([1]; 6–12 h): 83.6 ± 56.6 ng/mL
- Accumulative Excretion Amount, feces ([1]; 8–12 h): 12.5 ± 14.6 µg
- Accumulative Excretion Percentage, feces ([1]; 8–12 h): 0.44 ± 0.51%
- Excretion Amount, feces ([1]; 8–12 h): 12.5 ± 14.5 µg
- PU-48 Concentration in feces ([1]; 8–12 h): 6.9 ± 6.5 µg/mL
- Accumulative Excretion Amount, feces ([1]; 12–24 h): 31.5 ± 21.4 µg
- Accumulative Excretion Amount, urine ([1]; 12–24 h): 850.7 ± 589.4 ng
- Accumulative Excretion Percentage, feces ([1]; 12–24 h): 1.11 ± 0.73%
- Accumulative Excretion Percentage, urine ([1]; 12–24 h): 0.0306 ± 0.0216%
- Excretion Amount, feces ([1]; 12–24 h): 19.0 ± 11.3 µg
- Excretion Amount, urine ([1]; 12–24 h): 354.3 ± 485.8 ng
- PU-48 Concentration in feces ([1]; 12–24 h): 9.4 ± 5.3 µg/mL
- PU-48 Concentration in urine ([1]; 12–24 h): 65.3 ± 94.6 ng/mL
- Accumulative Excretion Percentage, urine ([1]; 24–36 h): 0.0380 ± 0.0250%
- Excretion Amount, urine ([1]; 24–36 h): 207.5 ± 123.7 ng
- PU-48 Concentration in urine ([1]; 24–36 h): 45.0 ± 36.9 ng/mL
- Accumulative Excretion Amount, feces ([1]; 24–48 h): 41.0 ± 21.7 µg
- Accumulative Excretion Percentage, feces ([1]; 24–48 h): 1.45 ± 0.74%
- Excretion Amount, feces ([1]; 24–48 h): 9.5 ± 9.5 µg
- PU-48 Concentration in feces ([1]; 24–48 h): 1.8 ± 1.9 µg/mL
- Excretion Amount, urine ([1]; 36–48 h): 158.4 ± 125.3 ng
- PU-48 Concentration in urine ([1]; 36–48 h): 25.6 ± 27.4 ng/mL
- Accumulative Excretion Amount, feces ([1]; 48–72 h): 44.3 ± 22.1 µg
- Accumulative Excretion Amount, urine ([1]; 48–72 h): 1319.8 ± 734.0 ng
- Accumulative Excretion Percentage, feces ([1]; 48–72 h): 1.56 ± 0.75%
- Accumulative Excretion Percentage, urine ([1]; 48–72 h): 0.0473 ± 0.0267%
- Excretion Amount, feces ([1]; 48–72 h): 3.2 ± 4.4 µg
- Excretion Amount, urine ([1]; 48–72 h): 103.2 ± 94.5 ng
- PU-48 Concentration in feces ([1]; 48–72 h): 0.5 ± 0.7 µg/mL
- PU-48 Concentration in urine ([1]; 48–72 h): 7.5 ± 5.9 ng/mL
- Accumulative Excretion Amount, urine ([1]; 72-96 h (within 96 h)): 1458.5 ± 733.1 ng
- Accumulative Excretion Percentage, urine ([1]; 72-96 h (within 96 h)): 0.0523 ± 0.0267% and 0.052 ± 0.0267% and 0.052%
- Excretion Amount, urine ([1]; 72-96 h): 138.7 ± 101.2 ng
- PU-48 Concentration in urine ([1]; 72-96 h): 9.0 ± 5.4 ng/mL
- Accumulative Excretion Amount, feces ([1]; 72–96 h (within 96 h)): 45.5 ± 22.0 µg
- Accumulative Excretion Percentage, feces ([1]; 72–96 h (within 96 h)): 1.61 ± 0.74% and 1.60%
- Excretion Amount, feces ([1]; 72–96 h): 1.2 ± 1.4 µg
- PU-48 Concentration in feces ([1]; 72–96 h): 0.2 ± 0.2 µg/mL
- Total excretion of PU-48 parent drug in the urine, feces, and bile ([1]; within 96 h): less than 2%
- Selective inhibition towards IMCD urea transporter UT-As [2]: higher selective inhibition
